Test results as given in paper PMC3994546 (Chemico-biological interactions, 2014).
Like-named read-outs stand apart in the source and are kept apart here.

Legend:
[1] = target: T1, hSULT2A1 (Homo sapiens, UniProt Q06520); test: Kinetics of inhibition of hSULT2A1-catalyzed sulfation of [3H]DHEA by OHPCBs; type: biochemical; conditions: for type of inhibition with respect to DHEA (best-fit kinetic model): fixed PAPS, varied DHEA and inhibitor, model chosen by R2 and AICc; for β value of partial noncompetitive inhibition equation: signifies formation of DHEA-sulfate in the presence of the inhibitor
T1 sequence (Q06520 1-285): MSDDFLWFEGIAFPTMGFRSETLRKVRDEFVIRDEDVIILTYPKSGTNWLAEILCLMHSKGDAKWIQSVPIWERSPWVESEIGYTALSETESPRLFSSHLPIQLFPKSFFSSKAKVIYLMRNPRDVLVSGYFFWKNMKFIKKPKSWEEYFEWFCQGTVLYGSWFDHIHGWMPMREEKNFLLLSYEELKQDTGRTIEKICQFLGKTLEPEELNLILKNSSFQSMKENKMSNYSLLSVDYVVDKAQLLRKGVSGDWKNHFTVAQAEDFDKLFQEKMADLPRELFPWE

[2] = target: T1, hSULT2A1; conditions: cited from earlier work
[3] = target: T1, hSULT2A1; test: Ligand binding to free hSULT2A1 by ANS fluorescence displacement; conditions: for difference in the multiphasic binding pattern in the presence or absence of either DHEA or PAP: with or without DHEA or PAP
[4] = target: T2, hSULT2A1 E-PAP complex (Homo sapiens, UniProt Q06520); test: Ligand binding to the hSULT2A1-PAP complex by ANS fluorescence displacement
T2 sequence (Q06520 1-285): T1 sequence (Q06520 1-285)

Structure (SMILES)	Ki [1] [µM]	substrate for hSULT2A1-catalyzed sulfation [2]	type of inhibition with respect to DHEA (best-fit kinetic model) [1]	Kd [3] [µM]	binding pattern to hSULT2A1 (ANS displacement) ([3]; free enzyme)	other results
Oc1ccc(-c2ccc(Cl)cc2)c(Cl)c1 [4-OHPCB 8, 4-hydroxy-2, 4’-dichlorobiphenyl]	5 ± 0.4	served as alternate substrates	–	–	–	–
Oc1ccc(-c2ccc(Cl)cc2Cl)cc1Cl [4’-OHPCB 25, 4’-hydroxy-2, 3’, 4-trichlorobiphenyl]	3 ± 0.6	served as alternate substrates	partial noncompetitive inhibition	–	–	β value of partial noncompetitive inhibition equation [1]: 0.19 ± 0.06
Oc1ccc(-c2ccc(Cl)cc2)cc1 [4’-OHPCB 3, 4’-hydroxy-4-monochlorobiphenyl]	17 ± 1.5	–	–	3.48 ± 1.03	–	–
Oc1ccc(-c2ccccc2Cl)cc1Cl [4’-OHPCB 6, 4’-hydroxy-2, 3’-dichlorobiphenyl]	5.4 ± 0.2	–	noncompetitive	–	–	–
Oc1c(Cl)cc(-c2ccc(Cl)cc2Cl)cc1Cl [4’-OHPCB 68, 4’-hydroxy-2, 3’, 4, 5’-tetrachlorobiphenyl]	0.6 ± 0.1	served as alternate substrates	partial noncompetitive inhibition	2.26 ± 0.33	–	β value of partial noncompetitive inhibition equation [1]: 0.23 ± 0.07
Oc1c(Cl)cc(-c2cccc(Cl)c2)cc1Cl [4-OHPCB 36, 4-hydroxy-3, 3’, 5-trichlorobiphenyl]	3.4 ± 0.8	served as alternate substrates	partial competitive inhibition	2.46 ± 0.43	–	α value of partial competitive inhibition equation [1]: 4.2
Oc1c(Cl)cc(-c2ccccc2Cl)cc1Cl [4-OHPCB 34, 4-hydroxy-2’, 3,5-trichlorobiphenyl]	0.8 ± 0.1	served as alternate substrates	–	2.07 ± 0.3	classical single-site binding characteristics	Kd [4]: 3.2 ± 0.31 µM
Oc1c(Cl)cc(-c2ccccc2)cc1Cl [4-OHPCB 14, 4-hydroxy-3,5-dichlorobiphenyl]	13.5 ± 1	served as alternate substrates	–	2.55 ± 0.63	classical single-site binding characteristics	Kd [4]: 2.21 ± 0.5 µM
Oc1ccc(Cl)cc1-c1ccc(Cl)c(Cl)c1 [6’-OHPCB 35, 6’-hydroxy-3, 3’-4 trichlorobiphenyl]	–	–	–	–	multiphasic behavior	Ki ([1]; read-out: Ki, inhibition of the sulfation of DHEA catalyzed by hSULT2A1, nonlinear regression fit to noncompetitive inhibition equation (4-OHPCB 36: competitive inhibition equation), 200 µM PAPS, pH 7.0, 37°C): 9 ± 0.5 µM
Oc1ccc(-c2cc(Cl)ccc2Cl)cc1 [4’-OHPCB 9, 4’-hydroxy-2,5-dichlorobiphenyl]	0.7 ± 0.1	–	partial noncompetitive inhibition	–	multiphasic binding	β value of partial noncompetitive inhibition equation [1]: 0.11 ± 0.02; difference in the multiphasic binding pattern in the presence or absence of either DHEA or PAP [3]: did not show significant differences
Oc1ccc(-c2cccc(Cl)c2)cc1Cl [4-OHPCB 11, 4-hydroxy-3, 3’-dichlorobiphenyl]	12 ± 0.9	served as alternate substrates	–	–	–	–
Oc1ccc(-c2ccc(Cl)c(Cl)c2)c(Cl)c1 [4’-OHPCB 33, 4’-hydroxy-2’, 3,4-trichlorobiphenyl]	3 ± 0.2	served as alternate substrates	–	–	multiphasic binding	difference in the multiphasic binding pattern in the presence or absence of either DHEA or PAP [3]: did not show significant differences
Oc1ccc(-c2ccc(Cl)cc2)cc1O [3’,4’-diOHPCB 3, 3’, 4’-dihydroxy-4-monochlorobiphenyl]	32 ± 2.3	–	–	1.17 ± 1.11	–	Kd ([3]; read-out: Kd2, binding to hSULT2A1 in the absence of substrates or products, free enzyme, two-site, nonspecific binding curve): 41.9 ± 74.8 µM
Oc1ccc(-c2cccc(Cl)c2Cl)cc1O [3’,4’-diOHPCB 5, 3’, 4’- dihydroxy-2,3-dichlorobiphenyl]	14 ± 0.8	–	–	–	–	–
Oc1ccc(-c2ccc(Cl)c(Cl)c2)cc1 [4’-OHPCB 12, 4’-hydroxy-3,4-dichlorobiphenyl]	4 ± 0.3	–	–	–	–	–
